Test results: paper PMC7145288, “New Peptide-Based Pharmacophore Activates 20S Proteasome” (Molecules, 2020)
Entries after “also recorded” stand apart in the source; their conditions may differ.

Target: T1, core proteasome, post glutamyl peptide hydrolyzing (PGPH) activity (Homo sapiens, UniProt P25787+P60900)
T1 construct: Human housekeeping core (20S) proteasome purified from erythrocytes; purchased Boston Biochem, Inc. or Enzo Life Sciences, Inc; host or cells: human erythrocytes (natural source)
Assay: PGPH peptidase activity of latent 20S proteasome (Z-LLE-AMC)
Assay type: biochemical
Settings: 100 μM Z-LLE-AMC, n = 3–4
Description: Human housekeeping core (20S) proteasome purified from erythrocytes was purchased from Boston Biochem, Inc. (Cambridge, MA) or from Enzo Life Sciences, Inc. (Farmingdale, NY). Multiple batches of the proteasomes were used and performed reproducibly. The stock proteasome was diluted to 0.2 mg/mL working solution in “dilution buffer” (50 mM Tris/HCl, pH 8, 20% glycerol). The following model peptide substrates, all releasing fluorescent 7-amino-4-methylcoumarin (AMC) reporter group after cleavage, were used: succinyl-LeuLeuValTyr-AMC (for the ChT-L peptidase; SucLLVY-AMC; Bachem Bioscience Inc., Philadelphia, PA), butoxycarbonyl-LeuArgArg-AMC (T-L; Bachem Bioscience Inc., Philadelphia, PA) and carbobenzoxy- LeuLeuGlu-AMC (PGPH; Enzo Life Sciences Inc., Farmingdale, NY). The substrates were used at concentration of 50 μM (ChT-L) or 100 μM (T-L, PGPH). […] After mixing, the plate was transferred to a Fluoroskan Ascent plate reader (Thermo Fisher Scientific Inc., Waltham, MA) for 1 h (37 °C), with fluorescence readouts once per minute. […] The reaction rates were calculated from a linear segment of kinetic curves constructed from measurements in 1-min intervals. Reaction rates were calculated using a linear fit performed with the Slope Analyser and Enzyme Kinetics applications launched within Origin Pro 2019 (OriginLab Corporation, Northampton, MA). […]

**Q.** For `N=C(N)NCCC[C@H](NC(=O)CN)C(=O)N[C@@H](CCCCN)C(=O)N[C@@H](CCCCN)C(=O)N[C@@H](CCCNC(=N)N)C(=O)N[C@@H](CCCNC(=N)N)C(=O)N[C@@H](CCC(N)=O)C(=O)N1Cc2ccccc2C[C@H]1C(=O)N1[C@@H](C(=O)N[C@@H](CCCNC(=N)N)C(=O)N2CCC[C@H]2C(=O)N[C@@H](CO)C(=O)O)C[C@H]2CCCC[C@H]21` [(5)], which “Effect on PGPH activity (in words)” value is on record?
**A.** Its value is “weak inhibitory effects; also recorded: did not seem to significantly affect”.

**Q.** `NCCCC[C@H](NC(=O)[C@H](CCCCN)NC(=O)[C@H](CCCCN)NC(=O)c1cc(NC(=O)[C@H](CCCCN)NC(=O)[C@H](CCCCN)NC(=O)[C@@H](N)CCCCN)cc(NC(=O)[C@H](CCCCN)NC(=O)[C@H](CCCCN)NC(=O)[C@@H](N)CCCCN)c1)C(=O)O` [(8)] was tested. Which “Effect on PGPH activity (in words)” value did it give?
**A.** The value was “weak inhibitory effects; also recorded: did not seem to significantly affect”.
